The nature of the assay: Agonist activity at […] in human platelets by platelet aggregation assay in presence of SFLLRN.

Where a SMILES comes first, the peptide text is derived from it. The star is where a group is joined. Palmitoyl = CCCCCCCCCCCCCCCC(=O)*

In the case of `CCCCCCCCCCCCCCCC(=O)N[C@@H](CCCN=C(N)N)C(=O)N[C@@H](CS)C(=O)N[C@@H](CC(C)C)C(=O)N[C@@H](CO)C(=O)N[C@@H](CO)C(=O)N[C@@H](CO)C(=O)N[C@@H](C)C(=O)N[C@H](C(=O)N[C@@H](C)C(=O)N[C@@H](CC(N)=O)C(=O)N[C@@H](CCCN=C(N)N)C(=O)N[C@@H](CO)C(=O)N[C@@H](CCCCN)C(=O)N[C@@H](CCCCN)C(=O)N[C@@H](CO)C(=O)N[C@@H](CCCN=C(N)N)C(=O)N[C@@H](CC(C)C)C(=O)N[C@@H](Cc1ccccc1)C(=O)O)C(C)C` (Palmitoyl-RCLSSSAVANRSKKSRLF-OH), the EC50 turned out to be 8 µM.

The term EC50 denotes the midpoint of the concentration-response curve.

For the origin of these results see BindingDB's records for doi:10.1021/jm400638v (The University of Queensland, 2013).
